Results from patent publication US20250228239A1, “MOLECULES HAVING PESTICIDAL UTILITY, AND INTERMEDIATES, COMPOSITIONS, AND PROCESSES, RELATED THERETO” (priority 2024, published 2025).
Where two headings read alike, the source gives them in different places.

Key:
[1] = tested on: Cabbage Looper (Trichoplusia ni, TRIPNI); experiment: Bioassays on Cabbage Looper (CL), 128-well diet tray assay; format: in vivo; details: Trichoplusia ni
Procedure, shortened: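 Activity is mean percent mortality over eight wells of second-instar larvae exposed to diet treated at 50 μg/cm^2 for 5–7 days at 25° C.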

[2] = tested on: Beet Armyworm (Spodoptera exigua, LAPHEG); experiment: Bioassays on Beet Armyworm (BAW), 128-well diet tray assay; format: in vivo; details: Spodoptera exigua
Procedure, shortened: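 Test molecule was dissolved in 90:10 acetone-water and applied at 50 μg/cm^2 onto artificial diet in eight wells, then dried. Second instar larvae, one to five per well, were added, and trays were kept vented at 25° C. with a 14:10 photoperiod for five to seven days before mortality was recorded.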

[3] = Cabbage Looper, Table ABC / ABC-DP rating, read-out: CL rating
[4] = Beet Armyworm, Table ABC / ABC-DP rating, read-out: BAW rating
[5] = Table ABC: Biological Results, species CL, read-out: CL
[6] = Table ABC: Biological Results, species BAW, read-out: BAW
[7] = Cabbage Looper, rating class, read-out: CL
[8] = Beet Armyworm, rating class, read-out: BAW

| SMILES | pest or weed control at 50 µg/cm2 [1, 3] [%] | pest or weed control at 50 µg/cm2 [2, 4] [%] | pest or weed control at 50 µg/cm2 [1, 7] [%] | pest or weed control at 50 µg/cm2 [2, 8] [%] | also measured |
| --- | --- | --- | --- | --- | --- |
| O=C(NNC(=O)C1CC1(F)F)c1cc(NC(=O)[C@H]2[C@H](c3cc(Cl)cc(Cl)c3)C2(Cl)Cl)ccc1Cl (relative stereo) [F2517, trans-2,2-Dichloro-N-(4-chloro-3-(2-(2,2-difluorocyclopropane-1-carbonyl)hydrazine-1-carbonyl)phenyl)-3-(3,5-dichlorophenyl)cyclopropane-1-carboxamide] | 50 to 100 | 50 to 100 | – | – | – |
| Cc1cc(NCCC(N)=O)ccc1NC(=O)c1cc(NC(=O)[C@H]2[C@H](c3cc(Cl)cc(Cl)c3)C2(Cl)Cl)ccc1Cl (relative stereo) [F1158, trans-N-(4-((3-Amino-3-oxopropyl)amino)-2-methylphenyl)-2-chloro-5-(2,2-dichloro-3-(3,5-dichlorophenyl)cyclopropane-1-carboxamido)benzamide] | – | – | – | – | pest or weed control at 50 µg/cm2 [1, 5]: 50 to 100%; pest or weed control at 50 µg/cm2 [2, 6]: 50 to 100% |
| O=C(Nc1c(F)ccc(NC(=O)C(F)(F)C(F)F)c1F)c1cc(NC(=O)[C@H]2[C@H](c3cc(Cl)c(Cl)c(Cl)c3)C2(Cl)Cl)ccc1Cl [F1534, 2-Chloro-5-((1R,3R)-2,2-dichloro-3-(3,4,5-trichlorophenyl)cyclopropane-1-carboxamido)-N-(2,6-difluoro-3-(2,2,3,3-tetrafluoropropanamido)phenyl)benzamide] | – | – | 50 to 100 | 50 to 100 | – |
| Nc1c(F)ccc(NC(=O)c2c(Cl)ccc(NC(=O)[C@H]3[C@H](c4ccc(F)c(Cl)c4)C3(Cl)Cl)c2Cl)c1F (relative stereo) [F1110, trans-N-(3-Amino-2,4-difluorophenyl)-2,6-dichloro-3-(2,2-dichloro-3-(3-chloro-4-fluorophenyl)cyclopropane-1-carboxamido)benzamide] | – | – | – | – | pest or weed control at 50 µg/cm2 [1, 5]: 50 to 100%; pest or weed control at 50 µg/cm2 [2, 6]: 50 to 100% |
| O=C(NNC1CCC(F)(F)CC1)c1cc(NC(=O)[C@H]2[C@H](c3cc(Cl)cc(Cl)c3)C2(Cl)Cl)ccc1Cl (relative stereo) [F2569, trans-2,2-dichloro-N-(4-chloro-3-(2-(4,4-difluorocyclohexyl)hydrazine-1-carbonyl)phenyl)-3-(3,5-dichlorophenyl)cyclopropane-1-carboxamide] | 50 to 100 | 50 to 100 | – | – | mortality at 50 µg/cm2 ([1]; 168 h, second instar larvae, 50 μg/cm^2 of test molecule on artificial diet, 25° C., five to seven days, average of eight wells, read-out: CL % Control (or Mortality) rating): 50 to 100%; mortality at 50 µg/cm2 ([2]; 168 h, second instar larvae, 50 μg/cm^2 of test molecule on artificial diet, 25° C., five to seven days, average of eight wells, read-out: BAW % Control (or Mortality) rating): 50 to 100% |
| N#Cc1cc(NC(=O)c2cc(NC(=O)[C@H]3[C@H](c4ccc(F)c(Cl)c4)C3(Cl)Cl)ccc2Cl)ccc1NC(=O)C(F)(F)F (relative stereo) [F1388, trans-2-Chloro-N-(3-cyano-4-(2,2,2-trifluoroacetamido)phenyl)-5-(2,2-dichloro-3-(3-chloro-4-fluorophenyl)cyclopropane-1-carboxamido)benzamide] | – | – | – | – | pest or weed control at 50 µg/cm2 [1, 5]: 50 to 100%; pest or weed control at 50 µg/cm2 [2, 6]: 50 to 100% |
| CC(C)NC(=O)NNC(=O)c1cc(NC(=O)[C@H]2[C@H](c3cc(Cl)cc(Cl)c3)C2(Cl)Cl)ccc1Cl (relative stereo) [F2536, trans-2-(2-Chloro-5-(2,2-dichloro-3-(3,5-dichlorophenyl)cyclopropane-1-carboxamido)benzoyl)-N-isopropylhydrazine-1-carboxamide] | 50 to 100 | 50 to 100 | – | – | – |
| CC(=O)Nc1c(F)ccc(NC(=O)c2cc(NC(=O)[C@H]3[C@H](c4cc(Cl)c(Cl)c(Cl)c4)C3(Cl)Cl)ccc2Cl)c1F [F1532, N-(3-Acetamido-2,4-difluorophenyl)-2-chloro-5-((1R,3R)-2,2-dichloro-3-(3,4,5-trichlorophenyl)cyclopropane-1-carboxamido)benzamide] | – | – | 50 to 100 | 50 to 100 | – |
| O=C(Nc1ccc(F)c(NC(=O)C(F)F)c1F)c1cc(NC(=O)[C@H]2[C@H](c3cc(Cl)c(Cl)c(Br)c3)C2(Cl)Cl)ccc1Cl (relative stereo) [F1623, trans-5-(3-(3-Bromo-4,5-dichlorophenyl)-2,2-dichlorocyclopropane-1-carboxamido)-2-chloro-N-(3-(2,2-difluoroacetamido)-2,4-difluorophenyl)benzamide] | – | – | 50 to 100 | 50 to 100 | – |
| O=C(Nc1ccc(F)c(NC(=O)C(F)(F)F)c1F)c1cc(NC(=O)[C@H]2[C@H](c3ccc(F)c(C(F)(F)F)c3)C2(Cl)Cl)cc(F)c1F [F1572, 5-((1R,3R)-2,2-Dichloro-3-(4-fluoro-3-(trifluoromethyl)phenyl)cyclopropane-1-carboxamido)-N-(2,4-difluoro-3-(2,2,2-trifluoroacetamido)phenyl)-2,3-difluorobenzamide] | – | – | 50 to 100 | 50 to 100 | – |
| O=C(NCC(F)(F)F)c1cc(NC(=O)[C@H]2[C@H](c3ccc(F)c(Cl)c3)C2(Cl)Cl)cc(F)c1Cl (relative stereo) [F2034, trans-2-Chloro-5-(2,2-dichloro-3-(3-chloro-4-fluorophenyl)cyclopropane-1-carboxamido)-3-fluoro-N-(2,2,2-trifluoroethyl)benzamide] | 50 to 100 | 50 to 100 | – | – | – |
| CN(NC(=O)c1cc(NC(=O)[C@H]2[C@H](c3cc(Cl)cc(Cl)c3)C2(Cl)Cl)ccc1Cl)c1ccccn1 (relative stereo) [F2503, trans-2,2-Dichloro-N-(4-chloro-3-(2-methyl-2-(pyridin-2-yl)hydrazine-1-carbonyl)phenyl)-3-(3,5-dichlorophenyl)cyclopropane-1-carboxamide] | 50 to 100 | 50 to 100 | – | – | – |
| O=C(Nc1ccc(F)c(NC(=O)C(F)F)c1F)c1cc(NC(=O)[C@H]2[C@H](c3ccc(F)c(I)c3)C2(Cl)Cl)ccc1Cl (relative stereo) [F1624, trans-2-Chloro-5-(2,2-dichloro-3-(4-fluoro-3-iodophenyl)cyclopropane-1-carboxamido)-N-(3-(2,2-difluoroacetamido)-2,4-difluorophenyl)benzamide] | – | – | 50 to 100 | 50 to 100 | – |
| O=C(Nc1cc(NC(=O)C(F)F)c(F)cc1F)c1cc(NC(=O)[C@H]2[C@H](c3cc(Cl)c(Cl)c(Cl)c3)C2(Cl)Cl)cc(F)c1F [F1580, 5-((1R,3R)-2,2-Dichloro-3-(3,4,5-trichlorophenyl)cyclopropane-1-carboxamido)-N-(5-(2,2-difluoroacetamido)-2,4-difluorophenyl)-2,3-difluorobenzamide] | – | – | 50 to 100 | 50 to 100 | – |
| CC(=O)C(=O)Nc1c(F)ccc(NC(=O)c2cc(NC(=O)[C@H]3[C@H](c4ccc(F)c(C(F)(F)F)c4)C3(Cl)Cl)ccc2Cl)c1F [F1754, 2-Chloro-5-((1R,3R)-2,2-dichloro-3-(4-fluoro-3-(trifluoromethyl)phenyl)cyclopropane-1-carboxamido)-N-(2,4-difluoro-3-(2-oxopropanamido)phenyl)benzamide] | – | – | 50 to 100 | 50 to 100 | – |
| O=C(Nc1c(F)ccc(NC(=O)C(F)(F)F)c1F)c1cc(NC(=O)[C@H]2[C@H](c3ccc(F)c(C(F)(F)F)c3)C2(Cl)Cl)cc(F)c1F [F1574, 5-((1R,3R)-2,2-Dichloro-3-(4-fluoro-3-(trifluoromethyl)phenyl)cyclopropane-1-carboxamido)-N-(2,6-difluoro-3-(2,2,2-trifluoroacetamido)phenyl)-2,3-difluorobenzamide] | – | – | 50 to 100 | 50 to 100 | – |
| O=C(Nc1c(F)ccc(NC(=O)C(F)(F)F)c1F)c1cc(NC(=O)[C@H]2[C@H](c3cc(Cl)c(Cl)c(Cl)c3)C2(Cl)Cl)ccc1Cl [F1516, 2-Chloro-5-((1R,3R)-2,2-dichloro-3-(3,4,5-trichlorophenyl)cyclopropane-1-carboxamido)-N-(2,6-difluoro-3-(2,2,2-trifluoroacetamido)phenyl)benzamide] | – | – | 50 to 100 | 50 to 100 | – |
| O=C(Nc1ccc(F)c(NC(=O)C(F)F)c1F)c1cc(NC(=O)[C@H]2[C@H](c3cc(Cl)cc(Cl)c3)C2(Cl)Cl)cc(F)c1Cl [F1333, 2-Chloro-5-((1R,3R)-2,2-dichloro-3-(3,5-dichlorophenyl)cyclopropane-1-carboxamido)-N-(3-(2,2-difluoroacetamido)-2,4-difluorophenyl)-3-fluorobenzamide] | – | – | – | – | pest or weed control at 50 µg/cm2 [1, 5]: 50 to 100%; pest or weed control at 50 µg/cm2 [2, 6]: 50 to 100% |
| COc1c(Cl)cc(NC(=O)[C@H]2[C@H](c3ccc(F)c(Cl)c3)C2(Cl)Cl)cc1C(=O)Nc1ccc(F)cc1F (relative stereo) [F1236, trans-3-Chloro-5-(2,2-dichloro-3-(3-chloro-4-fluorophenyl)cyclopropane-1-carboxamido)-N-(2,4-difluorophenyl)-2-methoxybenzamide] | – | – | – | – | pest or weed control at 50 µg/cm2 [1, 5]: 50 to 100%; pest or weed control at 50 µg/cm2 [2, 6]: 50 to 100% |
| C=CCC(=O)Nc1c(F)ccc(NC(=O)c2cc(NC(=O)[C@H]3[C@H](c4ccc(F)c(Br)c4)C3(Cl)Cl)ccc2Cl)c1F [F1880, 5-((1R,3R)-3-(3-Bromo-4-fluorophenyl)-2,2-dichlorocyclopropane-1-carboxamido)-N-(3-(but-3-enamido)-2,4-difluorophenyl)-2-chlorobenzamide] | 50 to 100 | 50 to 100 | – | – | – |
